In PubChem BioAssay (NCI) one finds GI50 and TGI data, which are given here for nine compounds.

Among the test systems are A549 NSCLC; LOX IMVI melanoma; MCF7 breast; NCI-H23 lung; NCI-H522 lung; OVCAR-3 ovarian; RXF 393 renal; SF-295 CNS; HL-60(TB) leukemia; MOLT-4 leukemia.
Test in all cases: NCI anticancer screen, dose series, 48 h

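Dose response: 5 concentrations. Exposure: 48 h. Format: 96-well plates. Endpoint: linear interpolation; highest concentration if not reached. GI50 is the concentration that inhibits growth by half. The concentration for full growth arrest is given as TGI.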

Regarding `Cc1sc2c(c1C)C(c1ccc(Cl)cc1)=N[C@@H](CC(=O)Nc1ccc(OCCOCCOCCOCCNc3cccc4c3C(=O)N(C3CCC(=O)NC3=O)C4=O)cc1)c1nnc(C)n1-2` (stereo partly drawn), the GI50 is 0.338 µM in the test on A549 NSCLC; 0.234 µM with LOX IMVI melanoma; less than 0.0166 µM in the test with MCF7 breast; 3.75 µM in the test on NCI-H23 lung; 0.518 µM in the test on NCI-H522 lung; 0.551 µM in the test with OVCAR-3 ovarian. In addition, the GI50 in the test with RXF 393 renal is 0.803 µM; in the test on SF-295 CNS it was 0.234 µM. In addition, the TGI in the test on A549 NSCLC is more than 100 µM; in the test on LOX IMVI melanoma, 19.1 µM; with MCF7 breast, more than 100 µM; in the test with NCI-H23 lung it was more than 100 µM; in the test with NCI-H522 lung, more than 100 µM; with OVCAR-3 ovarian, more than 100 µM. For the same compound, the TGI in the test on RXF 393 renal is 48.5 µM; in the test on SF-295 CNS it was more than 100 µM.
In the case of `O=C(NNc1cnccn1)c1nc2cc(F)ccc2n2cccc12`, the GI50 with A549 NSCLC is 0.542 µM; in the test on HL-60(TB) leukemia, 0.346 µM; with MCF7 breast, 0.336 µM; in the test with MOLT-4 leukemia it was 0.34 µM; with NCI-H23 lung, 0.765 µM; in the test on NCI-H522 lung, 0.281 µM. The GI50 in the test with OVCAR-3 ovarian is 0.311 µM; with SF-295 CNS, 0.531 µM. In addition, the TGI was more than 100 µM in the test with A549 NSCLC; 2.82 µM with HL-60(TB) leukemia; more than 100 µM in the test on MCF7 breast; more than 100 µM with MOLT-4 leukemia; more than 100 µM with NCI-H23 lung; 0.963 µM in the test with NCI-H522 lung. Moreover, the TGI in the test on OVCAR-3 ovarian and with SF-295 CNS was more than 100 µM each time.
On to `COc1cc2c3c(n(CCCN(C)CCO)c(=O)c2cc1OC)-c1cc2c(cc1C3=O)OCO2`, for which the GI50 is 9.49 µM in the test on A549 NSCLC; 0.709 µM in the test with LOX IMVI melanoma; more than 28.3 µM in the test with MCF7 breast; less than 0.013 µM in the test with MOLT-4 leukemia; 0.839 µM with NCI-H23 lung; 2.16 µM in the test with NCI-H522 lung. For the same compound, the GI50 is 35.9 µM in the test with OVCAR-3 ovarian, 27.4 µM in the test with RXF 393 renal and 0.672 µM in the test on SF-295 CNS. For the same compound, the TGI was more than 100 µM with A549 NSCLC; 13.9 µM with LOX IMVI melanoma; more than 100 µM in the test with MCF7 breast; more than 24.6 µM in the test with NCI-H23 lung; more than 46 µM in the test with NCI-H522 lung; more than 100 µM in the test with OVCAR-3 ovarian. Also, the values for the TGI in the test with RXF 393 renal and in the test with SF-295 CNS were more than 73.2 µM and more than 100 µM, respectively.
On to `NCCCn1c2c(c3ccccc3c1=O)C(=O)c1ccccc1-2`, for which the GI50 with A549 NSCLC is 0.0597 µM; in the test on LOX IMVI melanoma, 0.0649 µM; in the test on MCF7 breast, 0.0728 µM; in the test on MOLT-4 leukemia it was 0.0363 µM; with NCI-H522 lung, 0.564 µM; in the test on OVCAR-3 ovarian it was 0.721 µM. Moreover, the values for the GI50 in the test on RXF 393 renal and in the test with SF-295 CNS were 1.22 µM and 0.0709 µM, respectively. In addition, the TGI in the test with A549 NSCLC is 0.815 µM; in the test on LOX IMVI melanoma, 0.702 µM; in the test with MCF7 breast, 18 µM; in the test with MOLT-4 leukemia, 0.7 µM; with NCI-H23 lung, 0.977 µM; in the test on NCI-H522 lung, 13.4 µM. Moreover, the TGI in the test on OVCAR-3 ovarian turned out to be 5.25 µM; in the test with RXF 393 renal it was 6.68 µM; with SF-295 CNS it was 0.55 µM.
`COc1ccc2c(c1)C(C)Cc1c(ncnc1-n1cnc3ccccc31)N2C` (stereo not drawn): the GI50 in the test with A549 NSCLC is 0.642 µM; in the test on HL-60(TB) leukemia, 0.352 µM; with LOX IMVI melanoma, 0.602 µM; in the test with MCF7 breast, 0.313 µM; in the test with MOLT-4 leukemia it was 0.479 µM; in the test on NCI-H23 lung, 0.44 µM. Further, the values for the GI50 with NCI-H522 lung, with OVCAR-3 ovarian and in the test on SF-295 CNS were 0.254 µM, 0.357 µM and 0.292 µM, respectively. Also, the TGI was 16.6 µM in the test with A549 NSCLC; 3.74 µM in the test with HL-60(TB) leukemia; 18.2 µM in the test on LOX IMVI melanoma; 14 µM in the test on MCF7 breast; 21.2 µM in the test on MOLT-4 leukemia; 18.2 µM in the test with NCI-H23 lung. Also, the TGI was 0.744 µM in the test on NCI-H522 lung, 3.41 µM in the test on OVCAR-3 ovarian and 10.2 µM with SF-295 CNS.
Turning to `N#CC(C#N)=C1CCCOc2c1ccc1ccccc21`, the GI50 is more than 100 µM with A549 NSCLC; 16.7 µM with HL-60(TB) leukemia; more than 100 µM in the test on MCF7 breast; 19.5 µM in the test on MOLT-4 leukemia; more than 100 µM in the test on NCI-H23 lung; more than 100 µM in the test on NCI-H522 lung. In addition, the GI50 in the test on OVCAR-3 ovarian, in the test on RXF 393 renal and with SF-295 CNS was more than 100 µM each time. In addition, the TGI with A549 NSCLC is more than 100 µM; with HL-60(TB) leukemia, 36 µM; in the test with MCF7 breast, more than 100 µM; in the test with MOLT-4 leukemia, 51 µM; in the test on NCI-H23 lung it was more than 100 µM; in the test on NCI-H522 lung it was more than 100 µM. For the same compound, the TGI in the test with OVCAR-3 ovarian, in the test with RXF 393 renal and with SF-295 CNS was more than 100 µM each time.
With `COC(=O)[C@]12CC[C@@H](C)[C@H](C)[C@@H]1C1=CC[C@@H]3[C@@]4(C)C(C=O)=C[C@@](C)(COC(=O)c5ccco5)[C@@H]4[C@H](O)C[C@@]3(C)[C@]1(C)CC2`, the GI50 is 3.51 µM with A549 NSCLC; 2.33 µM in the test on HL-60(TB) leukemia; 1.57 µM in the test with LOX IMVI melanoma; 2.31 µM in the test with MCF7 breast; 2.29 µM in the test on MOLT-4 leukemia; 2.24 µM in the test on NCI-H23 lung. Besides, the GI50 in the test on NCI-H522 lung is 1.64 µM; in the test on OVCAR-3 ovarian, 1.87 µM; with SF-295 CNS, 1.95 µM. Besides, the TGI stood at 16.2 µM in the test with A549 NSCLC; 5.84 µM in the test on HL-60(TB) leukemia; 2.94 µM with LOX IMVI melanoma; 9.86 µM in the test with MCF7 breast; 7.5 µM in the test on MOLT-4 leukemia; 7.01 µM in the test on NCI-H23 lung. The figures for the TGI with NCI-H522 lung, with OVCAR-3 ovarian and in the test with SF-295 CNS were 3.94 µM, 3.73 µM and 4.69 µM, respectively.
Consider `Cc1ccc2occ/c(=N\Nc3ccccc3)c2c1`, for which the TGI in the test with A549 NSCLC, in the test with HL-60(TB) leukemia, in the test with LOX IMVI melanoma, in the test with MCF7 breast, with NCI-H23 lung and with NCI-H522 lung was more than 100 µM throughout. Moreover, the TGI with OVCAR-3 ovarian is more than 100 µM; in the test with RXF 393 renal, 58.9 µM; in the test on SF-295 CNS, more than 100 µM.
Turning to `C=C1C(=O)OC2C1CC(OC(C)=O)/C(C)=C/CCC1(C)OC21` (stereo not drawn), the TGI with A549 NSCLC, in the test on HL-60(TB) leukemia, in the test with LOX IMVI melanoma, in the test with MCF7 breast, with MOLT-4 leukemia and in the test on NCI-H23 lung was more than 100 µM in each case. In addition, the TGI in the test on NCI-H522 lung, in the test with OVCAR-3 ovarian and in the test with SF-295 CNS was more than 100 µM throughout.
